# Source: patent publication US12077503B2, “Substituted cyclic amides and their use as herbicides” (FMC CORPORATION, priority 2015, dated 2024)
# Tests used:
# Assay type in all cases: in vivo
# Kochia (Kochia scoparia) [1] = test: Test A preemergence; settings: Bassia scoparia, pre-emergence, 240 h, read-out: Plant response rating, Kochia; for pest or weed control at 125 g/ha: 125 g ai/ha, preemergence, visual rating after approx. 10 d, 0 to 100 scale where 0 is no effect and 100 is complete control; for pest or weed control at 31 g/ha: Preemergence, 31 g ai/ha, 0 to 100 scale (0 no effect, 100 complete control)
# How it was run: (§1)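 Preemergence soil spray on seeded pots or post-emergence spray on 1–2 leaf plants, in loam–sand blend. Greenhouse ~10 d. Visual rating 0–100 against untreated plants.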
# [2] = tested on: barnyardgrass (Echinochloa crus-galli); test: Test A preemergence; settings: Echinochloa crus-galli, pre-emergence, 240 h, read-out: Plant response rating, Barnyardgrass; for pest or weed control at 125 g/ha: 125 g ai/ha, preemergence, visual rating after approx. 10 d, 0 to 100 scale where 0 is no effect and 100 is complete control; for pest or weed control at 31 g/ha: Preemergence, 31 g ai/ha, 0 to 100 scale (0 no effect, 100 complete control)
# How it was run: as §1
# [3] = tested on: giant foxtail (Setaria faberii); test: Test A preemergence; settings: Setaria faberi, pre-emergence, 240 h, read-out: Plant response rating, Foxtail, Giant; for pest or weed control at 125 g/ha: 125 g ai/ha, preemergence, visual rating after approx. 10 d, 0 to 100 scale where 0 is no effect and 100 is complete control; for pest or weed control at 31 g/ha: Preemergence, 31 g ai/ha, 0 to 100 scale (0 no effect, 100 complete control)
# How it was run: as §1
# [4] = tested on: pigweed (Amaranthus retroflexus); test: Test A preemergence; settings: Amaranthus retroflexus, pre-emergence, 240 h, read-out: Plant response rating, Pigweed; for pest or weed control at 125 g/ha: 125 g ai/ha, preemergence, visual rating after approx. 10 d, 0 to 100 scale where 0 is no effect and 100 is complete control; for pest or weed control at 31 g/ha: Preemergence, 31 g ai/ha, 0 to 100 scale (0 no effect, 100 complete control)
# [5] = tested on: ragweed (common ragweed, Ambrosia elatior); test: Test A preemergence; settings: Ambrosia artemisiifolia, pre-emergence, 240 h, read-out: Plant response rating, Ragweed; for pest or weed control at 125 g/ha: 125 g ai/ha, preemergence, visual rating after approx. 10 d, 0 to 100 scale where 0 is no effect and 100 is complete control; for pest or weed control at 31 g/ha: Preemergence, 31 g ai/ha, 0 to 100 scale (0 no effect, 100 complete control)
# How it was run: as §1
# [6] = tested on: ryegrass, Italian (Italian ryegrass, Lolium multiflorum); test: Test A preemergence; settings: Lolium multiflorum, pre-emergence, 240 h, read-out: Plant response rating, Ryegrass, Italian; for pest or weed control at 125 g/ha: 125 g ai/ha, preemergence, visual rating after approx. 10 d, 0 to 100 scale where 0 is no effect and 100 is complete control; for pest or weed control at 31 g/ha: Preemergence, 31 g ai/ha, 0 to 100 scale (0 no effect, 100 complete control)
# How it was run: as §1
# [7] = tested on: Galium (catchweed bedstraw, Galium aparine); test: Test A postemergence; settings: Galium, post-emergence, 240 h; for pest or weed control at 125 g/ha: 125 g ai/ha, postemergence, visual injury rating after approximately 10 d, read-out: Galium plant response rating (0 to 100 scale, 0 no effect, 100 complete control); for pest or weed control at 31 g/ha: Postemergence, 31 g ai/ha, visual injury after approx. 10 d, 0 to 100 scale, 0 no effect, 100 complete control, read-out: Plant response rating, Galium
# How it was run: as §1
# Kochia (Kochia scoparia) [8] = test: Test A postemergence; settings: Bassia scoparia, post-emergence, 240 h; for pest or weed control at 125 g/ha: 125 g ai/ha, postemergence, visual injury rating after approximately 10 d, read-out: Kochia plant response rating (0 to 100 scale, 0 no effect, 100 complete control); for pest or weed control at 31 g/ha: Postemergence, 31 g ai/ha, visual injury after approx. 10 d, 0 to 100 scale, 0 no effect, 100 complete control, read-out: Plant response rating, Kochia
# How it was run: as §1
# [9] = tested on: barnyardgrass (Echinochloa crus-galli); test: Test A postemergence; settings: Echinochloa crus-galli, post-emergence, 240 h; for pest or weed control at 125 g/ha: 125 g ai/ha, postemergence, visual injury rating after approximately 10 d, read-out: Barnyardgrass plant response rating (0 to 100 scale, 0 no effect, 100 complete control); for pest or weed control at 31 g/ha: Postemergence, 31 g ai/ha, visual injury after approx. 10 d, 0 to 100 scale, 0 no effect, 100 complete control, read-out: Plant response rating, Barnyardgrass
# How it was run: as §1
# [10] = tested on: blackgrass (Alopecurus myosuroides); test: Test A postemergence; settings: Alopecurus myosuroides, post-emergence, 240 h; for pest or weed control at 125 g/ha: 125 g ai/ha, postemergence, visual injury rating after approximately 10 d, read-out: Blackgrass plant response rating (0 to 100 scale, 0 no effect, 100 complete control); for pest or weed control at 31 g/ha: Postemergence, 31 g ai/ha, visual injury after approx. 10 d, 0 to 100 scale, 0 no effect, 100 complete control, read-out: Plant response rating, Blackgrass
# How it was run: as §1
# corn (Zea mays) = test: Test A postemergence; settings: Zea mays, post-emergence, 240 h; for plant injury at 125 g/ha: 125 g ai/ha, postemergence, visual injury rating after approximately 10 d, read-out: Corn plant response rating (0 to 100 scale, 0 no effect, 100 complete control); for Corn plant response rating (crop injury, 0 = no effect, 100 = complete kill) at 31 g/ha: Postemergence, 31 g ai/ha, visual injury after approx. 10 d, 0 to 100 scale, 100 complete control
# How it was run: as §1
# [11] = tested on: giant foxtail (Setaria faberii); test: Test A postemergence; settings: Setaria faberi, post-emergence, 240 h; for pest or weed control at 125 g/ha: 125 g ai/ha, postemergence, visual injury rating after approximately 10 d, read-out: Foxtail, Giant plant response rating (0 to 100 scale, 0 no effect, 100 complete control); for pest or weed control at 31 g/ha: Postemergence, 31 g ai/ha, visual injury after approx. 10 d, 0 to 100 scale, 0 no effect, 100 complete control, read-out: Plant response rating, Foxtail, Giant
# How it was run: as §1
# [12] = tested on: pigweed (Amaranthus retroflexus); test: Test A postemergence; settings: Amaranthus retroflexus, post-emergence, 240 h; for pest or weed control at 125 g/ha: 125 g ai/ha, postemergence, visual injury rating after approximately 10 d, read-out: Pigweed plant response rating (0 to 100 scale, 0 no effect, 100 complete control); for pest or weed control at 31 g/ha: Postemergence, 31 g ai/ha, visual injury after approx. 10 d, 0 to 100 scale, 0 no effect, 100 complete control, read-out: Plant response rating, Pigweed
# How it was run: as §1
# [13] = tested on: ragweed (common ragweed, Ambrosia elatior); test: Test A postemergence; settings: Ambrosia artemisiifolia, post-emergence, 240 h; for pest or weed control at 125 g/ha: 125 g ai/ha, postemergence, visual injury rating after approximately 10 d, read-out: Ragweed plant response rating (0 to 100 scale, 0 no effect, 100 complete control); for pest or weed control at 31 g/ha: Postemergence, 31 g ai/ha, visual injury after approx. 10 d, 0 to 100 scale, 0 no effect, 100 complete control, read-out: Plant response rating, Ragweed
# How it was run: as §1
# [14] = tested on: ryegrass, Italian (Italian ryegrass, Lolium multiflorum); test: Test A postemergence; settings: Lolium multiflorum, post-emergence, 240 h; for pest or weed control at 125 g/ha: 125 g ai/ha, postemergence, visual injury rating after approximately 10 d, read-out: Ryegrass, Italian plant response rating (0 to 100 scale, 0 no effect, 100 complete control); for pest or weed control at 31 g/ha: Postemergence, 31 g ai/ha, visual injury after approx. 10 d, 0 to 100 scale, 0 no effect, 100 complete control, read-out: Plant response rating, Ryegrass, Italian
# How it was run: as §1
SMILES,pest or weed control at 125 g/ha (Kochia (Kochia scoparia) [1]) [%],pest or weed control at 31 g/ha (Kochia (Kochia scoparia) [1]) [%],pest or weed control at 125 g/ha [2] [%],pest or weed control at 31 g/ha [2] [%],pest or weed control at 125 g/ha [3] [%],pest or weed control at 31 g/ha [3] [%],pest or weed control at 125 g/ha [4] [%],pest or weed control at 31 g/ha [4] [%],pest or weed control at 125 g/ha [5] [%],pest or weed control at 31 g/ha [5] [%],pest or weed control at 125 g/ha [6] [%],pest or weed control at 31 g/ha [6] [%],pest or weed control at 125 g/ha [7] [%],pest or weed control at 31 g/ha [7] [%],pest or weed control at 125 g/ha (Kochia (Kochia scoparia) [8]) [%],pest or weed control at 31 g/ha (Kochia (Kochia scoparia) [8]) [%],pest or weed control at 125 g/ha [9] [%],pest or weed control at 31 g/ha [9] [%],pest or weed control at 125 g/ha [10] [%],pest or weed control at 31 g/ha [10] [%],other results
CN1CC[C@H](c2cccc(OC(F)(F)F)c2)[C@@H](C(=O)Nc2ccc(F)c(F)c2F)C1=O [Compound 808],0,0,100,100,90,70,0,0,0,0,30,0,0,0,0,0,70,50,0,0,"plant injury at 125 g/ha (corn (Zea mays)): 0%; Corn plant response rating (crop injury, 0 = no effect, 100 = complete kill) at 31 g/ha (corn (Zea mays)): 0%; pest or weed control at 125 g/ha [11]: 80%; pest or weed control at 31 g/ha [11]: 70%; pest or weed control at 125 g/ha [12]: 0%; pest or weed control at 31 g/ha [12]: 0%; pest or weed control at 125 g/ha [13]: 0%; pest or weed control at 31 g/ha [13]: 0%; pest or weed control at 125 g/ha [14]: 0%; pest or weed control at 31 g/ha [14]: 0%"
CSc1ccccc1NC(=O)[C@H]1C(=O)N(C)CC[C@@H]1c1cccc(OC(F)(F)F)c1 [Compound 809],0,0,90,90,20,0,0,0,0,0,0,0,0,0,0,0,0,0,0,0,"plant injury at 125 g/ha (corn (Zea mays)): 0%; Corn plant response rating (crop injury, 0 = no effect, 100 = complete kill) at 31 g/ha (corn (Zea mays)): 0%; pest or weed control at 125 g/ha [11]: 0%; pest or weed control at 31 g/ha [11]: 0%; pest or weed control at 125 g/ha [12]: 0%; pest or weed control at 31 g/ha [12]: 0%; pest or weed control at 125 g/ha [13]: 0%; pest or weed control at 31 g/ha [13]: 0%; pest or weed control at 125 g/ha [14]: 0%; pest or weed control at 31 g/ha [14]: 0%"
